# Assay results as given in article PMC6934184, “Selective DNA-PKcs inhibition extends the therapeutic index of localized radiotherapy and chemotherapy” (The Journal of Clinical Investigation, 2019).
# Target: T1, MAPK14 (p38 alpha) (Homo sapiens, UniProt Q16539)
# T1 construct: purchased Thermo Fisher Scientific (Life Technologies) SelectScreen
# Experiment: SelectScreen Z'LYTE
# Type: biochemical
# Method in brief: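 SelectScreen broad panel; activity (Z'LYTE, Adapta) plus binding formats. ATP: Km app for CSF1R Z'LYTE; 10 for CAMK1 Adapta. Readout = % per kinase.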
# T1 sequence (Q16539 whole entry): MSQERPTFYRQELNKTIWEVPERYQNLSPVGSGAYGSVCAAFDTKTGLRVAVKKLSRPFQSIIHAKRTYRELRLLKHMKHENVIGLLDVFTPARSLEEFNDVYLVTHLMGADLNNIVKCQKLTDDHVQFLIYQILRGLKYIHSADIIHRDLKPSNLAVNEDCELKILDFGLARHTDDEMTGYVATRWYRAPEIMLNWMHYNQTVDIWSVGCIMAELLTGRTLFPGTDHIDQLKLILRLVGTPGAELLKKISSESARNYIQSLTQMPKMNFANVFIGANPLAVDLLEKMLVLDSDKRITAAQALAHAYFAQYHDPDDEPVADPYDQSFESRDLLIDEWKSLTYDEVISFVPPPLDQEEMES
compound,measurement,value
CN(C(=O)CN1CCOCC1)c1ccc2sc3c(-c4cccc5c(=O)cc(N6CC7CCC(C6)O7)oc45)cccc3c2c1 [NU5455],inhibition at 1 µM,9.7%
